For 13 compounds, IC50 results are on record in patent publication US8470820B2, “Nitrogen-containing heteroaryl derivatives” (Hoffman-La Roche Inc., priority 2010, dated 2013).

The test deals with human PDE10A (Homo sapiens (Human), UniProt Q9Y233). Description: human PDE10A full length Scintillation Proximity Assay (SPA). Type of test: biochemical. Particulars: 50 nM cGMP and 50 nM [3H]-cGMP, 20 minutes at room temperature, read-out: PDE10A inhibition IC50. As to the method:
The following test was carried out in order to determine the activity of the compounds of the present invention. PDE10 activity of the compounds of the present invention was determined using a Scintillation Proximity Assay (SPA)-based method similar to the one previously described (Fawcett, L. et al., Proc Natl Acad Sci USA (2000) 97(7):3702-3707).
The human PDE10A full length assay was performed in 96-well micro titer plates. The reaction mixture of 50 μl contained 20 mM HEPES pH=7.5/10 mM MgCl2/0.05 mg/ml BSA (Sigma cat. # A-7906), 50 nM cGMP (Sigma, cat. # G6129) and 50 nM [^3H]-cGMP (GE Healthcare, cat. # TRK392 S.A. 13.2Ci/mmol), 3.75 ng/well PDE10A enzyme (Enzo Life Science, Lausen, Switzerland cat # SE-534) with or without a specific test compound. A range of concentrations of the potential inhibitor was used to generate data for calculating the concentration of inhibitor resulting in 50% of the effect (e.g. IC50, the concentration of the competitor inhibiting PDE10A activity by 50%). Non-specific activity was tested without the enzyme. The reaction was initiated by the addition of the substrate solution (cGMP and [^3H]-cGMP) and allowed to progress for 20 minutes at room temperature. The reaction was terminated by adding 25 μA of YSi-SPA scintillation beads (GE Healthcare, cat. # RPNQ0150) in 18 mM zinc sulphate solution (stop reagent). After 1 h under shaking, the plate was centrifuged one minute at 170 g to allow beads to settle. Afterwards, radioactive counts were measured on a Perkin Elmer TopCount Scintillation plate reader.
(In general: In a scintillation proximity assay essentially only radioactivity close to the scintillant gives light.)

Chain of human PDE10A (Q9Y233 other isoform, or with tags, fused parts or gaps): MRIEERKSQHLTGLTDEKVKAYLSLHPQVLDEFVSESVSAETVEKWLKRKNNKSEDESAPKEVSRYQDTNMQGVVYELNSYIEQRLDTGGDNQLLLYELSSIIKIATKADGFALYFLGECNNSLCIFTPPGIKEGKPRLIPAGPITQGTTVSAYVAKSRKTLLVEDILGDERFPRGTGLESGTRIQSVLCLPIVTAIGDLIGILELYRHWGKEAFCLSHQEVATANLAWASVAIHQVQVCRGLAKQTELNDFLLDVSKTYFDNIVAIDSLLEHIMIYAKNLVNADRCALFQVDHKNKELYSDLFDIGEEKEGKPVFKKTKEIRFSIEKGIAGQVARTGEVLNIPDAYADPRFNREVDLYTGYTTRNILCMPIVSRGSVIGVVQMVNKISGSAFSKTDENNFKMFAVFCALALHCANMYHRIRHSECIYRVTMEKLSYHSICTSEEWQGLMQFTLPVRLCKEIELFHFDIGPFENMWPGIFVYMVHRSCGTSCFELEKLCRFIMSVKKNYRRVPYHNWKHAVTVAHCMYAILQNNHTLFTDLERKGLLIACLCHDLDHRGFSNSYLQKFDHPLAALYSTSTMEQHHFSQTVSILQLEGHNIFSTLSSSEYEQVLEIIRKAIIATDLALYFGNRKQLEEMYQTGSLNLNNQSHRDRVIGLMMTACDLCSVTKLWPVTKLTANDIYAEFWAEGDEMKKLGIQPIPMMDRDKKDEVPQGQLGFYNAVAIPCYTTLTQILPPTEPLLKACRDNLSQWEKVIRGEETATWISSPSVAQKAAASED

Consider `Cc1ccc(Nc2cncnc2)c(C(=O)Nc2ccn(-c3ccccc3)n2)n1` [Example 1, 6-Methyl-3-(pyrimidin-5-ylamino)-pyridine-2-carboxylic acid (1-phenyl-1H-pyrazol-3-yl)-amide], for which the half-maximal inhibitory concentration (IC50) worked out at 0.09 µM.
For the compound `Cc1ccc(Nc2cncnc2)c(C(=O)Nc2ccn(-c3ccccn3)n2)n1` [Example 4, 6-Methyl-3-(pyrimidin-5-ylamino)-pyridine-2-carboxylic acid (1-pyridin-2-yl-1H-pyrazol-3-yl)-amide], the IC50 was found to be 0.368 µM.
Take `Cc1ccc(Nc2cncnc2)c(C(=O)Nc2ccn(-c3ccncc3)n2)n1` [Example 5, 6-Methyl-3-(pyrimidin-5-ylamino)-pyridine-2-carboxylic acid (1-pyridin-4-yl-1H-pyrazol-3-yl)-amide]: the IC50 came out at 0.048 µM.
With `O=C(Nc1ccn(-c2ccc(F)cc2)n1)c1nc(C2CC2)ccc1Nc1cncnc1` [Example 6, 6-Cyclopropyl-3-(pyrimidin-5-ylamino)-pyridine-2-carboxylic acid [1-(4-fluoro-phenyl)-1H-pyrazol-3-yl]-amide], the IC50 was 0.023 µM.
On to `O=C(Nc1ccn(-c2ccncc2)n1)c1nc(C2CC2)ccc1Nc1cncnc1` [Example 7, 6-Cyclopropyl-3-(pyrimidin-5-ylamino)-pyridine-2-carboxylic acid (1-pyridin-4-yl-1H-pyrazol-3-yl)-amide], for which the IC50 was 0.01 µM.
Take `Cn1nc(-c2ccccn2)cc1NC(=O)c1nc(C2CC2)ccc1Nc1cncnc1` [Example 8, 6-Cyclopropyl-3-(pyrimidin-5-ylamino)-pyridine-2-carboxylic acid (2-methyl-5-pyridin-2-yl-2H-pyrazol-3-yl)-amide]: the IC50 came to 0.005 µM.
As to `O=C(Nc1cc(-c2ccccc2)nn1CCO)c1nc(C2CC2)ccc1Nc1cncnc1` [Example 9, 6-Cyclopropyl-3-(pyrimidin-5-ylamino)-pyridine-2-carboxylic acid [2-(2-hydroxy-ethyl)-5-phenyl-2H-pyrazol-3-yl]-amide], the IC50 came out at 0.122 µM.
For `O=C(Nc1cc(-c2ccccn2)nn1CCO)c1nc(C2CC2)ccc1Nc1cncnc1` [Example 10, 6-Cyclopropyl-3-(pyrimidin-5-ylamino)-pyridine-2-carboxylic acid [2-(2-hydroxy-ethyl)-5-pyridin-2-yl-2H-pyrazol-3-yl]-amide], the IC50 turned out to be 0.002 µM.
For `COCc1ccc(Nc2cncnc2)c(C(=O)Nc2cc(-c3ccccn3)nn2CCO)n1` [Example 11, 6-Methoxymethyl-3-(pyrimidin-5-ylamino)-pyridine-2-carboxylic acid [2-(2-hydroxy-ethyl)-5-pyridin-2-yl-2H-pyrazol-3-yl]-amide] the value was 0.005 µM.
For the compound `CN(C)CCn1nc(-c2ccccn2)cc1NC(=O)c1nc(C2CC2)ccc1Nc1cncnc1` [Example 12, 6-Cyclopropyl-3-(pyrimidin-5-ylamino)-pyridine-2-carboxylic acid [2-(2-dimethylamino-ethyl)-5-pyridin-2-yl-2H-pyrazol-3-yl]-amide], the IC50 was determined as 0.001 µM.
For `COCc1ncc(Nc2cncnc2)c(C(=O)Nc2cc(-c3ccccn3)nn2C)n1` [Example 13, 2-Methoxymethyl-5-(pyrimidin-5-ylamino)-pyrimidine-4-carboxylic acid (2-methyl-5-pyridin-2-yl-2H-pyrazol-3-yl)-amide] the value was 0.256 µM; for `O=C(Nc1cc(-c2ccccn2)nn1C1CCCCC1)c1nc(C2CC2)ccc1Nc1cncnc1` [Example 14, 6-Cyclopropyl-3-(pyrimidin-5-ylamino)-pyridine-2-carboxylic acid (2-cyclohexyl-5-pyridin-2-yl-2H-pyrazol-3-yl)-amide], 0.001 µM.
With `CCOC(=O)Cn1nc(-c2ccccn2)cc1NC(=O)c1nc(C2CC2)ccc1Nc1cncnc1` [Example 15, (5-{[6-Cyclopropyl-3-(pyrimidin-5-ylamino)-pyridine-2-carbonyl]-amino}-3-pyridin-2-yl-pyrazol-1-yl)-acetic acid ethyl ester], the IC50 is 0.004 µM.

A word on the IC50: it is the concentration that gives 50% inhibition.
